Series [1] has as its system Neutrophil. Nature of the series: Inhibition of PMA-induced oxidative burst in human neutrophils at 50 uM by amplex red assay. The format is functional.
The nature of series [2]: Cytotoxicity against human neutrophils assessed as cell viability at 50 uM after 4 hrs by trypan blue assay. Type of series: cell-based, Neutrophil. Particulars: read-out: Activity.
Series [3] concerns Neutrophil. The series is described as follows: Inhibition of PMA-induced oxidative burst in human neutrophils at 50 uM by APF assay. Type of series: functional.
In series [4] the test system is Neutrophil. Nature of the series: Inhibition of PMA-induced oxidative burst in human neutrophils at 50 uM by chemiluminescence assay. The format is functional.
The subject of series [5] is Neutrophil. Nature of the series: Induction of apoptosis in human neutrophils assessed as necrotic cells at 50 uM after 4 hrs by Annexin-V-FLUOS staining based flow cytometry (reference value: 0.1%). The format is functional. In general terms: In flow cytometry, cells or beads pass a laser one at a time.
The subject of series [6] is Neutrophil. Nature of the series: Induction of apoptosis in human neutrophils assessed as viable cells at 50 uM after 4 hrs by Annexin-V-FLUOS staining based flow cytometry (reference value: 89.8%). Type of series: functional. As to conditions: read-out: Activity.
For series [7], the system named is Neutrophil. Nature of the series: Inhibition of PMA-induced oxidative burst in human neutrophils by APF assay. The format is functional, cell-based.
Series [8] concerns Neutrophil. The series is described as follows: Inhibition of PMA-induced oxidative burst in human neutrophils by chemiluminescence assay. The format is functional, cell-based.
Series [9] has as its system Neutrophil. The series is described as follows: Inhibition of PMA-induced oxidative burst in human neutrophils by amplex red assay. Type of series: functional, cell-based.
The test system of series [10] is Neutrophil. The series is described as follows: Induction of apoptosis in human neutrophils assessed as late apoptotic cells at 50 uM after 4 hrs by Annexin-V-FLUOS staining based flow cytometry (reference value: 0.5%). Type of series: functional.
Series [11] relates to Neutrophil. The series is described as follows: Induction of apoptosis in human neutrophils assessed as early apoptotic cells at 50 uM after 4 hrs by Annexin-V-FLUOS staining based flow cytometry (reference value: 9.7%). The format is functional.
In series [12] the test system is Neutrophil. Nature of the series: Induction of apoptosis in human neutrophils assessed as late apoptotic cells at 50 uM after 4 hrs by Annexin-V-FLUOS staining based flow cytometry in presence of Z-DEVD-FMK caspase 3 (reference value: 0.8%). The format is functional.
The test system of series [13] is Neutrophil. Nature of the series: Induction of apoptosis in human neutrophils assessed as necrotic cells at 50 uM after 4 hrs by Annexin-V-FLUOS staining based flow cytometry in presence of Z-DEVD-FMK caspase 3 (reference value: 0.0%). The format is functional.
Series [14] deals with Neutrophil. Nature of the series: Induction of apoptosis in human neutrophils assessed as early apoptotic cells at 50 uM after 4 hrs by Annexin-V-FLUOS staining based flow cytometry in presence of Z-DEVD-FMK caspase 3 (reference value: 10.1%). Type of series: functional.
The test system of series [15] is Neutrophil. The series is described as follows: Induction of apoptosis in human neutrophils assessed as viable cells at 50 uM after 4 hrs by Annexin-V-FLUOS staining based flow cytometry in presence of Z-DEVD-FMK caspase 3 (reference value: 89.0%). The format is functional. Particulars: read-out: Activity.

For orientation: inhibition means the drop in the measured response relative to a control, in per cent. Read a high inhibition as a strong effect. Broadly, the IC50 is the concentration at which inhibition is half-maximal.

Take `O=c1cc(-c2ccccc2)oc2ccccc12` [FLAVONE]: the inhibition at 50 µM in the series on Neutrophil [1], with Neutrophil [3] and in the series with Neutrophil [4] was less than 40% in each case. For the same compound, the viability at 4 h, 50 µM in series [2] stood at 98%.
`O=c1cc(-c2ccc(O)c(O)c2)oc2c(Cl)c(O)c(Cl)c(O)c12`: the Activity was found to be 0.1% in the series on Neutrophil [5], 0.9% with Neutrophil [10] and 15.3% in the series on Neutrophil [11]. For the same compound, the viability at 50 µM with Neutrophil [6] came out at 83.7%. Moreover, the IC50 is 7200 nM with Neutrophil [7], 3400 nM with Neutrophil [8] and 6200 nM in the series on Neutrophil [9]. For the same compound, the viability at 4 h, 50 µM in series [2] worked out at 98%.
On to `O=c1c(O)c(-c2ccc(O)c(O)c2)oc2cc(O)cc(O)c12` [QUERCETIN], for which the figures for the Activity with Neutrophil [5], in the series on Neutrophil [10] and in the series with Neutrophil [11] were 0.1%, 0.6% and 14.6%, respectively. Moreover, the viability at 50 µM in the series on Neutrophil [6] worked out at 84.7%. Moreover, the IC50 was determined as 1800 nM in the series on Neutrophil [7], 2800 nM in the series on Neutrophil [8] and 2700 nM in the series on Neutrophil [9]. The viability at 4 h, 50 µM in series [2] was found to be 98%.
Take `O=c1cc(-c2ccc(O)c(O)c2)oc2c(Cl)c(O)cc(O)c12`: the Activity with Neutrophil [5] came out at 0%; with Neutrophil [12] it was 1%; in the series on Neutrophil [13] it was 0%; in the series on Neutrophil [14] it was 9.6%; in the series with Neutrophil [10] it was 0.5%; with Neutrophil [11], 25.3%. Further, the viability at 50 µM with Neutrophil [6] is 74.1%; with Neutrophil [15], 89.4%. Also, the IC50 in the series on Neutrophil [7] is 2600 nM; with Neutrophil [8] it was 2600 nM; in the series on Neutrophil [9], 1600 nM. In series [2], the viability at 4 h, 50 µM worked out at 98%.
As for `O=c1cc(-c2ccc(O)c(O)c2)oc2cc(O)cc(O)c12` [LUTEOLIN], the results for the Activity with Neutrophil [5], with Neutrophil [10] and in the series with Neutrophil [11] were 0.1%, 1.1% and 20.2%, respectively. For the same compound, the viability at 50 µM in the series with Neutrophil [6] amounted to 78.6%. Further, the values for the IC50 in the series on Neutrophil [7], in the series on Neutrophil [8] and in the series with Neutrophil [9] were 2200 nM, 5200 nM and 1700 nM, respectively. In addition, the viability at 4 h, 50 µM in series [2] stood at 98%.
For the compound `O=c1c(Cl)c(-c2ccc(O)c(O)c2)oc2cc(O)cc(O)c12`, the IC50 with Neutrophil [7] was determined as 400 nM; in the series on Neutrophil [8], 2000 nM; with Neutrophil [9], 1400 nM. Moreover, the viability at 4 h, 50 µM in [2] worked out at 98%.
Take `O=c1c(Cl)c(-c2ccc(O)c(O)c2)oc2c(Cl)c(O)cc(O)c12`: the IC50 is 1800 nM in the series with Neutrophil [7], 4600 nM with Neutrophil [8] and 1700 nM in the series on Neutrophil [9]. Also, in series [2], the viability at 4 h, 50 µM was 98%.
